From patent US12018026B1, “Pyrido[4,3-e][1,2,3]triazolo[1,5-a]pyrimidine as CK2 inhibitors” (KING FAISAL UNIVERSITY, priority 2024, dated 2024) come the findings set out here.

pIC50: −log10 of the molar value.

In test [1] the test system is PC3 (prostate). In words: In vitro cytotoxic activity MTT assay, PC3. The conditions noted are these: Homo sapiens; cells exposed for 96 hours; read-out: Cytotoxicity activity IC50, PC3 (prostate). The class given is cell-based. As for the experimental part:
(§1) Compounds 1-16 were screened for their in vitro cytotoxic activity utilizing a 3-(4,5-dimethyl-thiazol-2-yl)-2,5-diphenyltetrazolium bromide (MTT) assay against selected cancer human cell lines consisting of PC3 (prostate), HCT116 (colon), A375 (melanoma), H1299 (lung), MIAPaCa-2 (pancreas), HL60 (leukemia), MCF7 (breast), MDA-MB-231 (breast) (T. Mosmann, J. Immunol. Meth., 1983, 65, 55-63). The cells were cultured at 37° C. in RMPI1640 medium supplemented with 10% fetal bovine serum, 50 IU/mL penicillin, and 50 μg/mL streptomycin in a 5% CO2 incubator. All cells were sub-cultured 3 times/week by trypsinisation. Viable cells were seeded and allowed to adhere for 12 hours before a test drug was added in 96-well plates at an initial density of 1.0×10^5 cells/mL. Tumor cell lines were separately exposed to various concentrations of the tested compounds followed by incubation at a temperature of 37° C. during 96 hours inside a medium of fresh RMPI 1640. Cells were subsequently incubated at 37° C. using MTT at 0.5 mg/mL during 4 hours. After removal of supernatant, formazan crystals were dissolved in isopropanol and the optical density was measured at 570 nm. CX-4945 was used as a positive control.
A general note: Formazan colour is commonly taken as a measure of viable cells.

For test [2], the system named is HCT116 (colon). In words: In vitro cytotoxic activity MTT assay, HCT116. The class given is cell-based. The conditions noted are these: Homo sapiens, HCT-116; cells exposed for 96 hours; read-out: Cytotoxicity activity IC50, HCT116 (colon). On the procedure: as §1
The test system of test [3] is A375 (melanoma). In words: In vitro cytotoxic activity MTT assay, A375. The conditions noted are these: Homo sapiens, A-375; cells exposed for 96 hours; read-out: Cytotoxicity activity IC50, A375 (melanoma). The class given is cell-based. On the procedure: as §1
Test [4] concerns H1299 (lung). In words: In vitro cytotoxic activity MTT assay, H1299. The class given is cell-based. The conditions noted are these: Homo sapiens, NCI-H1299; cells exposed for 96 hours; read-out: Cytotoxicity activity IC50, H1299 (lung). As for the experimental part: as §1
Test [5] deals with MIAPaCa-2 (pancreas). In words: In vitro cytotoxic activity MTT assay, MIAPaCa-2. The conditions noted are these: Homo sapiens, MIA PaCa-2; cells exposed for 96 hours; read-out: Cytotoxicity activity IC50, MIAPaCa-2 (pancreas). The format is cell-based. On the procedure: as §1
Test [6] has as its system HL60 (leukemia). In words: In vitro cytotoxic activity MTT assay, HL60. The class given is cell-based. The conditions noted are these: Homo sapiens, HL-60; cells exposed for 96 hours; read-out: Cytotoxicity activity IC50, HL60 (leukemia). As for the experimental part: as §1
For test [7], the system named is MCF7 (breast). In words: In vitro cytotoxic activity MTT assay, MCF7. The class given is cell-based. The conditions noted are these: Homo sapiens, cells exposed for 96 hours, read-out: Cytotoxicity activity IC50, MCF7 (breast). As for the experimental part: as §1
Test [8] concerns MDA-MB-231 (breast). In words: In vitro cytotoxic activity MTT assay, MDA-MB-231. The format is cell-based. The conditions noted are these: Homo sapiens, cells exposed for 96 hours, read-out: Cytotoxicity activity IC50, MDA-MB-231 (breast). On the procedure: as §1
Test [9] deals with T1, recombinant human CK2 (RRββ-holoenzyme) (Homo sapiens, UniProt P68400).
T1 construct: purchased Millipore
In words: CK2 Kinase Assay (33P-ATP, substrate peptide RRRDDDSDDD). The format is biochemical. The conditions noted are these: final ATP concentration 15 μM, 10 min at 30° C.; read-out: protein kinase CK2 IC50. As for the experimental part:
CK2 Kinase Assay was conducted using the protocol as described in Pierre F. et al; J. Med. Chem. 2011, 54, 635-654. The tested compounds in aqueous solution were added at a volume of 10 μL to a reaction mixture comprising 10 μL of assay dilution buffer (ADB; 20 mM MOPS, pH 7.2, 25 mM β-glycerol phosphate, 5 mM EGTA, 1 mM sodium orthovanadate, and 1 mM dithiothreitol), 10 μL of substrate peptide (RRRDDDSDDD, dissolved in ADB at a concentration of 1 mM), 10 μL of recombinant human CK2 (RRββ-holoenzyme, 25 ng dissolved in ADB; Millipore). Reactions were initiated by the addition of 10 μL of ATP solution (90% 75 mMMgCl2, 75 μM ATP (final ATP concentration: 15 μM) dissolved in ADB; 10% [γ-33P] ATP (stock 1mCi/100 L; 3000 Ci/mmol (Perkin-Elmer) and maintained for 10 min at 30° C. The reactions were quenched with 100 μL of 0.75% phosphoric acid and then transferred to and filtered through a phosphor cellulose filter plate (Millipore). After washing each well five times with 0.75% phosphoric acid, the plate was dried under vacuum for 5 min and, following the addition of 15 μL of scintillation fluid to each well, the residual radioactivity was measured using a Wallac luminescence counter. The IC50 values were derived from eight concentrations of test inhibitors.

T1 sequence (P68400 whole entry): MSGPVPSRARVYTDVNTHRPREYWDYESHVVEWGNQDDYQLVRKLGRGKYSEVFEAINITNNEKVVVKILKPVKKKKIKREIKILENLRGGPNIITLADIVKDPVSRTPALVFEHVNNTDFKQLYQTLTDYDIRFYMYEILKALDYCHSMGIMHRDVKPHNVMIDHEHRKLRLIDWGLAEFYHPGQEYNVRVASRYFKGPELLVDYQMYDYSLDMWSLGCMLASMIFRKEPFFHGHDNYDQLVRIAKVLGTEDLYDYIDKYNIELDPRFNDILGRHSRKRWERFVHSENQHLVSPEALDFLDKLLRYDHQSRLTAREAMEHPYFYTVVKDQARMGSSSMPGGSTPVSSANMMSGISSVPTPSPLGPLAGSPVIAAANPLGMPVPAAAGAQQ
T1 sequence (P67870 whole entry partner): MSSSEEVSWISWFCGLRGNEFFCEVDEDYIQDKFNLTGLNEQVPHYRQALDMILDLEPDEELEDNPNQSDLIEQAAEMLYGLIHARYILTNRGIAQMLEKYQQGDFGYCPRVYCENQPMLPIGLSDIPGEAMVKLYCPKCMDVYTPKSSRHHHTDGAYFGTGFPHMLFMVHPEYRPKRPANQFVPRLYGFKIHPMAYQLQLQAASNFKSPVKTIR

The term pIC50 denotes the negative decadic logarithm of the IC50, by convention in mol/L. As to `O=C(O)c1nnn2c1nc(Nc1cccc(Cl)c1)c1ccncc12` [Compound 1, 5-((3-chlorophenyl)amino)pyrido[4,3-e][1,2,3]triazolo[1,5-a]pyrimidine-3-carboxylic acid], the pIC50 in test [1] is 5.85; in [2] it was 5.60; in test [3], 5.24; in test [4], 5.48; in test [5], 5.96; in [6] it was 5.27. Also, the pIC50 in test [7] was 5.33; in test [8], 5.38; in test [9], 7.62.
